Data set [1] deals with T1, GluN1/GluN2A-L812M receptors (Homo sapiens, UniProt Q05586+Q12879, L812M). Put plainly: Agonist potency, TEVC recordings from Xenopus laevis oocytes, L812M mutant. Type of data set: cell-based.
The target of data set [2] is GluN1/GluN2A-N615K receptors (Homo sapiens, UniProt Q05586+Q12879, N615K). It is filed as cell-based.
Data set [3] has as its system animal models of epilepsy. Particulars: wide range of animal models of epilepsy; cited from earlier work.
For data set [4] the following is noted: used in children; cited from earlier work.
Another data set has as its target GluN1/GluN2A receptors (Homo sapiens, UniProt Q05586+Q12879). Put plainly: Screening of FDA-approved NMDAR antagonists, TEVC oocyte recordings, wild type. It is filed as cell-based.
The subject of a further data set is seizures of the proband. Put plainly: Antiepileptic treatment of the proband. It is filed as in vivo, human.
Data set [5] addresses T1, GluN1/GluN2A-L812M receptors. Type of data set: cell-based.
Where [6] appears, read: read-out: percent maximal inhibition.

By EC50 is commonly meant the concentration that produces a half-maximal response. Take `NCC(=O)O` [Glycine]: in data set [1] (L812M compared with wild type), the “reduction in EC50 (increased potency), GluN2A-L812M vs wild type” value is given as “eightfold”. Also, the EC50 in data set [1] (read-out: Glycine EC50, L812M, in the presence of 100 μmol/L glutamate, -40 mV) was 0.14 ± 0.01 µM.

Broadly, the inhibition is the change of the read-out against control, counted positive when it falls. For `CC12CC3CC(C)(C1)CC(N)(C3)C2` [Memantine], the results for the inhibition at 100 µM (in data set [2] (setting [6]); on GluN1/GluN2A receptors (setting [6]); in data set [5] (setting [6])) were 69%, 89% and 87%, respectively. Also, in data set [3], the anticonvulsant effects entry is listed as “anticonvulsant effects”. Further, the toxicity in children entry in data set [4] is given as “without toxicity”. The cognitive ability result in the data set with seizures of the proband (memantine treatment) was “remained unchanged”. In addition, the “interictal EEG after treatment” value in the data set on seizures of the proband (postmemantine EEG, wakefulness and sleep) is on record as “no asymmetries or epileptiform discharges”. The myoclonic jerks entry in the data set with seizures of the proband (upon memantine treatment) is “ceased”. Moreover, the side effects entry in the data set with seizures of the proband (~0.5 mg/kg per day) is “without side effects”.

One may read the IC50 as the concentration at which inhibition is half-maximal. In the case of `CN1CC[C@@]23CCCC[C@@H]2[C@@H]1Cc1ccc(O)cc13` [Dextrorphan], the values for the IC50 (in data set [2]; on GluN1/GluN2A receptors; in data set [5]) were 0.34 ± 0.06 µM, 1.9 ± 0.3 µM and 6.1 ± 1.3 µM, respectively. Also, the values for the inhibition at 30 µM (in data set [2] (setting [6]); on GluN1/GluN2A receptors (setting [6]); in data set [5] (setting [6])) were 96%, 92% and 85%, respectively.

In the case of `COc1ccc2c(c1)[C@]13CCCC[C@@H]1[C@H](C2)N(C)CC3` [Dextromethorphan], the IC50 stood at 9 ± 1.3 µM in data set [2] and 33 ± 4.8 µM in data set [5]. Further, the “enhanced potency on N615K-containing NMDARs in comparison to wild-type NMDARs” value in data set [2] (N615K compared with wild type) is reported as “twofold”. In addition, the inhibition at 300 µM in data set [2] (setting [6]) was 92%; on GluN1/GluN2A receptors (setting [6]) it was 88%; in data set [5] (setting [6]), 91%.

On to `NC12CC3CC(CC(C3)C1)C2` [Amantadine], for which the results for the IC50 (in data set [2]; on GluN1/GluN2A receptors; in data set [5]) were 458 ± 25 µM, 110 ± 11 µM and 113 ± 5.1 µM, respectively. The figures for the inhibition at 1000 µM (in data set [2] (setting [6]); on GluN1/GluN2A receptors (setting [6]); in data set [5] (setting [6])) were 76%, 94% and 88%, respectively.

The values above are taken from publication PMC4019449 (Annals of Clinical and Translational Neurology, 2014).
